Measurements reported in PubChem BioAssay (NCI).
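Each compound was tested at five concentrations against cells in 96-well plates for 48 hours. The concentration for full growth arrest is given as TGI.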

Key:
Experiment in all cases: DTP human tumour cell line panel, 48 h
786-0 renal = tested on: 786-0 renal
A498 renal = tested on: A498 renal
A549 NSCLC = tested on: A549 NSCLC
ACHN renal = tested on: ACHN renal
CAKI-1 renal = tested on: CAKI-1 renal
CCRF-CEM leukemia = tested on: CCRF-CEM leukemia
COLO 205 colon = tested on: COLO 205 colon
DMS 114 small cell lung = tested on: DMS 114 small cell lung
DMS 273 small cell lung = tested on: DMS 273 small cell lung
EKVX NSCLC = tested on: EKVX NSCLC
HCT-116 colon = tested on: HCT-116 colon
HCT-15 colon = tested on: HCT-15 colon
HL-60(TB) leukemia = tested on: HL-60(TB) leukemia
HOP-62 NSCLC = tested on: HOP-62 NSCLC
HT29 colon = tested on: HT29 colon
K-562 leukemia = tested on: K-562 leukemia
KM12 colon = tested on: KM12 colon
KM20L2 colon = tested on: KM20L2 colon
LOX IMVI melanoma = tested on: LOX IMVI melanoma
LXFL 529 NSCLC = tested on: LXFL 529 NSCLC
M14 melanoma = tested on: M14 melanoma
M19-MEL melanoma = tested on: M19-MEL melanoma
MALME-3M melanoma = tested on: MALME-3M melanoma
MOLT-4 leukemia = tested on: MOLT-4 leukemia
NCI-H226 lung = tested on: NCI-H226 lung
NCI-H23 lung = tested on: NCI-H23 lung
NCI-H522 lung = tested on: NCI-H522 lung
OVCAR-3 ovarian = tested on: OVCAR-3 ovarian
OVCAR-4 ovarian = tested on: OVCAR-4 ovarian
OVCAR-5 ovarian = tested on: OVCAR-5 ovarian
OVCAR-8 ovarian = tested on: OVCAR-8 ovarian
RPMI-8226 leukemia = tested on: RPMI-8226 leukemia
RXF 393 renal = tested on: RXF 393 renal
RXF-631 renal = tested on: RXF-631 renal
SF-268 CNS = tested on: SF-268 CNS
SF-295 CNS = tested on: SF-295 CNS
SF-539 CNS = tested on: SF-539 CNS
SK-MEL-2 melanoma = tested on: SK-MEL-2 melanoma
SK-MEL-28 melanoma = tested on: SK-MEL-28 melanoma
SK-MEL-5 melanoma = tested on: SK-MEL-5 melanoma
SK-OV-3 ovarian = tested on: SK-OV-3 ovarian
SN12C renal = tested on: SN12C renal
SNB-19 CNS = tested on: SNB-19 CNS
SNB-75 CNS = tested on: SNB-75 CNS
SNB-78 CNS = tested on: SNB-78 CNS
SR leukemia = tested on: SR leukemia
SW-620 colon = tested on: SW-620 colon
U251 CNS = tested on: U251 CNS
UACC-257 melanoma = tested on: UACC-257 melanoma
UACC-62 melanoma = tested on: UACC-62 melanoma
UO-31 renal = tested on: UO-31 renal
XF 498 CNS = tested on: XF 498 CNS
DLD-1 colon = tested on: DLD-1 colon
HCC-2998 colon = tested on: HCC-2998 colon
IGROV1 ovarian = tested on: IGROV1 ovarian
NCI-H460 lung = tested on: NCI-H460 lung
TK-10 renal = tested on: TK-10 renal

CC[C@H]1[C@@H](C)C=C[C@@H](C)N1S(=O)(=O)c1ccc(C)cc1
TGI (786-0 renal): > 100 µM | TGI (A498 renal): > 100 µM | TGI (A549 NSCLC): > 100 µM | TGI (ACHN renal): > 100 µM | TGI (CAKI-1 renal): > 100 µM | TGI (CCRF-CEM leukemia): > 100 µM | TGI (COLO 205 colon): > 100 µM | TGI (DMS 114 small cell lung): 34.9 µM | TGI (DMS 273 small cell lung): > 100 µM | TGI (EKVX NSCLC): > 100 µM | TGI (HCT-116 colon): > 100 µM | TGI (HCT-15 colon): > 100 µM | TGI (HL-60(TB) leukemia): 52 µM | TGI (HOP-62 NSCLC): > 100 µM | TGI (HT29 colon): > 100 µM | TGI (K-562 leukemia): > 100 µM | TGI (KM12 colon): > 100 µM | TGI (KM20L2 colon): > 100 µM | TGI (LOX IMVI melanoma): > 100 µM | TGI (LXFL 529 NSCLC): > 100 µM | TGI (M14 melanoma): > 100 µM | TGI (M19-MEL melanoma): > 100 µM | TGI (MALME-3M melanoma): > 100 µM | TGI (MOLT-4 leukemia): > 100 µM | TGI (NCI-H226 lung): > 100 µM | TGI (NCI-H23 lung): > 100 µM | TGI (NCI-H522 lung): > 100 µM | TGI (OVCAR-3 ovarian): > 100 µM | TGI (OVCAR-4 ovarian): > 100 µM | TGI (OVCAR-5 ovarian): > 100 µM | TGI (OVCAR-8 ovarian): > 100 µM | TGI (RPMI-8226 leukemia): > 100 µM | TGI (RXF 393 renal): > 100 µM | TGI (RXF-631 renal): 30.4 µM | TGI (SF-268 CNS): > 100 µM | TGI (SF-295 CNS): > 100 µM | TGI (SF-539 CNS): > 100 µM | TGI (SK-MEL-2 melanoma): 52.9 µM | TGI (SK-MEL-28 melanoma): > 100 µM | TGI (SK-MEL-5 melanoma): > 100 µM | TGI (SK-OV-3 ovarian): > 100 µM | TGI (SN12C renal): > 100 µM | TGI (SNB-19 CNS): 35.3 µM | TGI (SNB-75 CNS): > 100 µM | TGI (SNB-78 CNS): > 100 µM | TGI (SR leukemia): > 100 µM | TGI (SW-620 colon): > 100 µM | TGI (U251 CNS): > 100 µM | TGI (UACC-257 melanoma): > 100 µM | TGI (UACC-62 melanoma): > 100 µM | TGI (UO-31 renal): 27.5 µM | TGI (XF 498 CNS): 42.4 µM

Cc1ccc(NC(=O)CC2SC(=Nc3cccc(Cl)c3C)NC2=O)cc1 (stereo not drawn)
TGI (786-0 renal): > 100 µM | TGI (A498 renal): > 100 µM | TGI (A549 NSCLC): > 100 µM | TGI (ACHN renal): > 100 µM | TGI (CAKI-1 renal): > 100 µM | TGI (CCRF-CEM leukemia): > 100 µM | TGI (COLO 205 colon): > 100 µM | TGI (DLD-1 colon): > 100 µM | TGI (DMS 114 small cell lung): 96.6 µM | TGI (DMS 273 small cell lung): > 100 µM | TGI (EKVX NSCLC): > 100 µM | TGI (HCC-2998 colon): > 100 µM | TGI (HCT-15 colon): > 100 µM | TGI (HOP-62 NSCLC): > 100 µM | TGI (HT29 colon): > 100 µM | TGI (IGROV1 ovarian): > 100 µM | TGI (K-562 leukemia): > 100 µM | TGI (KM12 colon): > 100 µM | TGI (KM20L2 colon): > 100 µM | TGI (LOX IMVI melanoma): > 100 µM | TGI (LXFL 529 NSCLC): > 100 µM | TGI (M14 melanoma): > 100 µM | TGI (M19-MEL melanoma): > 100 µM | TGI (MALME-3M melanoma): > 100 µM | TGI (MOLT-4 leukemia): > 100 µM | TGI (NCI-H23 lung): 95.3 µM | TGI (NCI-H460 lung): > 100 µM | TGI (OVCAR-3 ovarian): > 100 µM | TGI (OVCAR-4 ovarian): > 100 µM | TGI (OVCAR-5 ovarian): > 100 µM | TGI (OVCAR-8 ovarian): > 100 µM | TGI (RPMI-8226 leukemia): > 100 µM | TGI (RXF-631 renal): > 100 µM | TGI (SF-268 CNS): > 100 µM | TGI (SF-295 CNS): > 100 µM | TGI (SF-539 CNS): > 100 µM | TGI (SK-MEL-2 melanoma): > 100 µM | TGI (SK-MEL-28 melanoma): > 100 µM | TGI (SK-MEL-5 melanoma): 96.5 µM | TGI (SK-OV-3 ovarian): > 100 µM | TGI (SN12C renal): > 100 µM | TGI (SNB-19 CNS): > 100 µM | TGI (SNB-75 CNS): > 100 µM | TGI (SNB-78 CNS): > 100 µM | TGI (SW-620 colon): > 100 µM | TGI (TK-10 renal): > 100 µM | TGI (U251 CNS): > 100 µM | TGI (UACC-257 melanoma): > 100 µM | TGI (UACC-62 melanoma): > 100 µM | TGI (UO-31 renal): 73.8 µM | TGI (XF 498 CNS): > 100 µM
